Paper PMC10746280, “Bacterial efflux pump modulators prevent bacterial growth in macrophages and under broth conditions that mimic the host environment” (mBio, 2023)

Columns and labels:
[1] = tested on: S. Typhimurium SL1344 (sifB::gfp) in RAW 264.7 macrophages; experiment: SAFIRE macrophage assay: intracellular bacterial load (GFP signal within macrophages); format: cell-based, Salmonella enterica serotype Typhimurium; settings: for IC50: Salmonella enterica, TYPHIMURIUM, RAW264.7, read-out: SAFIRE IC50
Outline: (§1)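 Compound or DMSO added 2 h after gentamicin-protected infection (MOI ~30, sifB::gfp SL1344) of RAW 264.7 cells and left to 18 h. Fixed cells imaged; intracellular GFP area per macrophage gives bacterial load, while retained adherent MitoTracker Red-stained macrophages define host toxicity.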

RAW 264.7 macrophages = experiment: SAFIRE macrophage assay: host toxicity (adherent macrophage count, morphology); format: cell-based
Outline: as §1

[2] = 5 uM, 'Toxic' given instead of a score
[3] = 25 uM, 'Toxic' given instead of a score
[4] = 5 uM compound, n=1, DMSO solvent control = 98, rifampicin 2 μg/mL = 65
[5] = 25 uM compound, n=1, DMSO solvent control = 98, rifampicin 2 μg/mL = 65
[6] = 5 uM compound, n=1, DMSO solvent control = 100
[7] = 25 uM compound, n=1, DMSO solvent control = 100

Row | Compound | 5 uM Avg Antibacterial Score [1, 2] | 25 uM Avg Antibacterial Score [1, 3] | 5 uM Avg Cell # Score (RAW 264.7 macrophages; 5 uM) | 25 uM Avg Cell # Score (RAW 264.7 macrophages; 25 uM) | IC50 [1] | 5 uM Avg Antibacterial Score [1, 4] | 25 uM Avg Antibacterial Score [1, 5] | 5 uM Avg Cell # Score (RAW 264.7 macrophages; [6]) | 25 uM Avg Cell # Score (RAW 264.7 macrophages; [7])
1 | OC(CNC1CCNCC1)COc1ccc(Cl)cc1Cl (stereo not shown) [CU201] | 44 | 13 | 109 | 102 | – | – | – | – | –
2 | OC(CNC1CCNCC1)COc1cc(Cl)cc(Cl)c1 (stereo not shown) [CU202] | 34 | 11 | 100 | 95 | – | – | – | – | –
3 | N[C@@H]1CCN(CC(O)COc2cc(Cl)cc(Cl)c2)C1 (stereo partly shown) [CU203] | 33 | 9 | 98 | 106 | – | – | – | – | –
4 | N[C@H]1CCN(CC(O)COc2cc(Cl)cc(Cl)c2)C1 (stereo partly shown) [CU204] | 28 | 8.51 | 93 | 101 | – | – | – | – | –
5 | NCC1CCN(CC(O)COc2ccc(Cl)c(Cl)c2)CC1 (stereo not shown) [CU205] | 12 | Toxic | 131 | 13 | – | – | – | – | –
6 | NCC1CCN(CC(O)COc2ccc(Cl)c(Cl)c2)C1 (stereo not shown) [CU206] | 25 | 12 | 124 | 87 | – | – | – | – | –
7 | c1ccc2c(CN3CCNCC3)cccc2c1 [CU207] | 98 | 59 | 113 | 121 | – | – | – | – | –
8 | NCC1CCN(CC(O)COc2cc(Cl)cc(Cl)c2)CC1 (stereo not shown) [CU208] | 20 | Toxic | 167 | 15 | – | – | – | – | –
9 | NCC1CCN(CC(O)COc2cc(Cl)cc(Cl)c2)C1 (stereo not shown) [CU209] | 41 | 14 | 143 | 94 | – | – | – | – | –
10 | COCCCN(C)C1CCN(CC(O)COc2ccc(Cl)c(Cl)c2)CC1 (stereo not shown) [CU210] | 54 | 8 | 131 | 112 | 6 nM | – | – | – | –
11 | COCCN1CCN(CC(O)COc2ccc(Cl)c(Cl)c2)CC1 (stereo not shown) [CU211] | 100 | 50 | 120 | 115 | – | – | – | – | –
12 | OC(COc1ccc(Cl)c(Cl)c1)CN1CCN(Cc2cccc3ccccc23)CC1 (stereo not shown) [CU212] | Toxic | Toxic | 19 | 18 | – | – | – | – | –
13 | OC(COc1cc(Cl)cc(Cl)c1)CN1CCN(Cc2cccc3ccccc23)CC1 (stereo not shown) [CU213] | Toxic | Toxic | 41 | 15 | – | – | – | – | –
14 | NC1CCN(CC(O)COc2ccc3ccccc3c2)CC1 (stereo not shown) [CU214] | 28 | Toxic | 103 | 22 | – | – | – | – | –
15 | NC1CCN(CC(O)COc2cccc3ccccc23)CC1 (stereo not shown) [CU215] | 44 | Toxic | 106 | 17 | – | – | – | – | –
16 | N[C@H]1CC[C@@H](NCC(O)COc2cc(Cl)cc(Cl)c2)CC1 (stereo partly shown) [CU216] | 52 | Toxic | 102 | 22 | – | – | – | – | –
17 | N[C@H]1CC[C@H](NCC(O)COc2cc(Cl)cc(Cl)c2)CC1 (stereo partly shown) [CU217] | 65 | 16 | 106 | 96 | – | – | – | – | –
18 | N[C@H]1CC[C@@H](N2CC(COc3cc(Cl)cc(Cl)c3)OC2=O)CC1 (stereo partly shown) [CU218] | 83 | 15 | 163 | 131 | – | – | – | – | –
19 | N[C@H]1CC[C@H](N2CC(COc3cc(Cl)cc(Cl)c3)OC2=O)CC1 (stereo partly shown) [CU219] | 93 | 22 | 137 | 123 | – | – | – | – | –
20 | CN1CCN(CC(O)COc2ccc(Cl)c(Cl)c2)CC1=O (stereo not shown) [CU220] | 104 | 105 | 116 | 105 | – | – | – | – | –
21 | CN(C)CC1COCCN1CC(O)COc1ccc(Cl)c(Cl)c1 (stereo not shown) [CU221] | 106 | 84 | 104 | 106 | – | – | – | – | –
22 | OC(COc1ccc(Cl)c(Cl)c1)CN1C2CCC1COC2 (stereo not shown) [CU222] | 101 | 72 | 108 | 103 | – | – | – | – | –
23 | OC(COc1ccc(Cl)c(Cl)c1)CN1CC2CC(C1)O2 (stereo not shown) [CU223] | 104 | 103 | 106 | 100 | – | – | – | – | –

Row | Compound | 5 uM Avg Antibacterial Score [1, 2] | 25 uM Avg Antibacterial Score [1, 3] | 5 uM Avg Cell # Score (RAW 264.7 macrophages; 5 uM) | 25 uM Avg Cell # Score (RAW 264.7 macrophages; 25 uM) | IC50 [1] | 5 uM Avg Antibacterial Score [1, 4] | 25 uM Avg Antibacterial Score [1, 5] | 5 uM Avg Cell # Score (RAW 264.7 macrophages; [6]) | 25 uM Avg Cell # Score (RAW 264.7 macrophages; [7])
24 | OC(COc1ccc(Cl)c(Cl)c1)CN1CC2CCC1CO2 (stereo not shown) [CU224] | 100 | 69 | 117 | 95 | – | – | – | – | –
25 | OC(COc1ccc(Cl)c(Cl)c1)CN1CC2CC1CO2 (stereo not shown) [CU225] | 98 | 73 | 114 | 101 | – | – | – | – | –
26 | OC(COc1ccc(Cl)c(Cl)c1)CN1CC2CCC(C1)O2 (stereo not shown) [CU226] | 102 | 108 | 108 | 74 | – | – | – | – | –
27 | OC(COc1ccc(Cl)c(Cl)c1)CN1CCC2(CCO2)C1 (stereo not shown) [CU228] | 98 | 58 | 111 | 102 | – | – | – | – | –
28 | OC(COc1ccc(Cl)c(Cl)c1)CN1CCC2(CCO2)CC1 (stereo not shown) [CU229] | 101 | 83 | 147 | 141 | – | – | – | – | –
29 | NC1CCCN(CC(O)COc2ccc(Cl)c(Cl)c2)CC1 (stereo not shown) [CU230] | 34 | Toxic | 134 | 19 | – | – | – | – | –
30 | NC1CCCN(CC(O)COc2cc(Cl)cc(Cl)c2)CC1 (stereo not shown) [CU231] | – | – | – | – | – | 22 | Toxic | 112 | 19
31 | NC1CCN(CC(O)COc2ccccc2C(F)(F)F)CC1 (stereo not shown) [CU233] | – | – | – | – | – | 47 | 34 | 128 | 104
32 | OC(COc1cc(Cl)cc(Cl)c1)CN1CCC(n2ccnc2)CC1 (stereo not shown) [CU234] | – | – | – | – | – | 40 | 12 | 134 | 108
33 | CC1(N)CCN(CC(O)COc2ccc(Cl)c(Cl)c2)CC1 (stereo not shown) [CU235] | – | – | – | – | – | 20 | 14 | 125 | 84
34 | OC(CN[C@H]1[C@@H]2CNC[C@@H]21)COc1ccc(Cl)c(Cl)c1 (stereo partly shown) [CU236] | – | – | – | – | – | 53 | 18 | 121 | 99
35 | N[C@@H]1CCN(C[C@H](O)COc2ccc(Cl)c(Cl)c2)C1 [CU237] | – | – | – | – | 8.2 nM | 34 | 11 | 125 | 107
36 | N[C@H]1CCN(C[C@H](O)COc2ccc(Cl)c(Cl)c2)C1 [CU238] | – | – | – | – | – | 34 | 12 | 126 | 102
37 | N[C@@H]1CCN(C[C@@H](O)COc2ccc(Cl)c(Cl)c2)C1 [CU239] | – | – | – | – | 13.5 nM | 25 | 8 | 129 | 104
38 | N[C@H]1CCN(C[C@@H](O)COc2ccc(Cl)c(Cl)c2)C1 [CU240] | – | – | – | – | 9.1 nM | 29 | 10 | 118 | 105
39 | NC1CCN(CC(COc2ccc(Cl)c(Cl)c2)OCc2ccccc2)CC1 (stereo not shown) [CU241] | – | – | – | – | – | 30 | Toxic | 110 | 6
40 | COC(COc1ccc(Cl)c(Cl)c1)CN1CCC(N)CC1 (stereo not shown) [CU242] | – | – | – | – | – | 28 | 9 | 123 | 109
41 | CC1(N)CCN(CC(O)COc2cc(Cl)cc(Cl)c2)CC1 (stereo not shown) [CU243] | – | – | – | – | – | 21 | 12 | 129 | 90
42 | N[C@H]1CC[C@@H](NCC(O)COc2ccc(Cl)c(Cl)c2)CC1 (stereo partly shown) [CU245] | – | – | – | – | – | 66 | 16 | 122 | 103
43 | N[C@H]1CC[C@H](NCC(O)COc2ccc(Cl)c(Cl)c2)CC1 (stereo partly shown) [CU246] | – | – | – | – | – | 72 | 19 | 117 | 106
44 | OC(COc1cc(Cl)cc(Cl)c1)CN1CCCCC1 (stereo not shown) [CU247] | – | – | – | – | – | 93 | 50 | 118 | 111
45 | OC(COc1cc(Cl)cc(Cl)c1)CN1CCCC1 (stereo not shown) [CU248] | – | – | – | – | – | 93 | 48 | 115 | 108
